pEC50: −log10 of the molar value.
Molecular target: human F508del-CFTR (Homo sapiens, UniProt P13569, DEL508-508)
Test: F508del-CFTR cell surface expression (corrector activity), DiscoveRx ß-galactosidase complementation chemiluminescence assay in recombinant U2OS cell line;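 also: U2OS cells co-expressing ProLink-tagged F508del-CFTR and a membrane-anchored enzyme acceptor, where more surface CFTR restores β-galactosidase activity measured by chemiluminescence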
Conditions: for pEC50: EC50, F508del-CFTR cell surface expression, U2OS cells, 16h compound incubation, geomean values; for Emax: U2OS, in relation to Emax of corrector lumacaftor (=100%), arithmetic mean values

Chain of human F508del-CFTR (P13569 with tags, fused parts or gaps DEL508-508): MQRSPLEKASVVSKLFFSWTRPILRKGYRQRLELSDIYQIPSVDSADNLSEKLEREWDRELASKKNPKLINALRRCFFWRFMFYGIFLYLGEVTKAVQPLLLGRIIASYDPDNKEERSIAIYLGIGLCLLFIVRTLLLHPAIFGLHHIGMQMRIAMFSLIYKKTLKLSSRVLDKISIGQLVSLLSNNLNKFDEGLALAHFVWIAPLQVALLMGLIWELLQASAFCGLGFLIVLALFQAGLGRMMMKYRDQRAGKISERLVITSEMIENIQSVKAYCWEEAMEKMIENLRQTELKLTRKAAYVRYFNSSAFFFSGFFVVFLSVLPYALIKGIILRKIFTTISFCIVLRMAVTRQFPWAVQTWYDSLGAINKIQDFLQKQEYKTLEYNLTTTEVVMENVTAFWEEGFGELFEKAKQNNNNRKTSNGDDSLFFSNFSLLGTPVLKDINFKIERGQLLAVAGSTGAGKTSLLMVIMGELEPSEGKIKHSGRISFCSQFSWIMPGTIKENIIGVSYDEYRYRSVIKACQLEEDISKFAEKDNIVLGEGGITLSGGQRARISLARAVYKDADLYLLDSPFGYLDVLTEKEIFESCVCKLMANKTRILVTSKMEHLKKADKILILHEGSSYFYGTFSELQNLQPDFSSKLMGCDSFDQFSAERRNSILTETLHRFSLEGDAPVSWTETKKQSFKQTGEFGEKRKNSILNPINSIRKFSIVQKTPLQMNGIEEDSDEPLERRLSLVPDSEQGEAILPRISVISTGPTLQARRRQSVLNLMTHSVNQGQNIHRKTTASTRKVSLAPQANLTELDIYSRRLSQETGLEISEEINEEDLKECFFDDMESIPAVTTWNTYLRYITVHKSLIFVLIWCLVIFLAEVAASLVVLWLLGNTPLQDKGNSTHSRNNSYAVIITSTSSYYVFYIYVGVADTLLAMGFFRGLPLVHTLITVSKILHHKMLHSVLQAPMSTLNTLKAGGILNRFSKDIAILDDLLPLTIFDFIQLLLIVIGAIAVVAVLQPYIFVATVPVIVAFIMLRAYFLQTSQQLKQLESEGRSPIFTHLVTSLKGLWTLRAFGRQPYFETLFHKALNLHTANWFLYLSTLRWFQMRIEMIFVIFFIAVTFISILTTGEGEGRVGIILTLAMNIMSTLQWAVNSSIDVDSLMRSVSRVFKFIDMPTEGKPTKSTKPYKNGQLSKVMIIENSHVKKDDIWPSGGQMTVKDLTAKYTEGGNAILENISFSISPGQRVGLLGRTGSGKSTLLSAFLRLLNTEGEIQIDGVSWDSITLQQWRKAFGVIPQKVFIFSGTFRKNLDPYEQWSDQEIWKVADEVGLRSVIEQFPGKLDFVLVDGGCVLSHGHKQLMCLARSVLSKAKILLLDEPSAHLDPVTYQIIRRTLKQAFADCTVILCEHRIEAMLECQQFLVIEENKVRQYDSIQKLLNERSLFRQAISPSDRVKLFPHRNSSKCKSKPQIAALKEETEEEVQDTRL

SMILES	pEC50	Emax [%]
CC(C)C[C@H]1C(=O)N2CCCC[C@H]2C(=O)N[C@H](Cc2ccccc2)COc2cnc3c(F)cccc3c2C(=O)N[C@H](C(=O)NCCc2cc(C3CC3)no2)CC(=O)N1C [Example 500, (9S,13S,19aS,22R)-22-benzyl-N-(2-(3-cyclopropylisoxazol-5-yl)ethyl)-3-fluoro-13-isobutyl-12-methyl-7,11,14,20-tetraoxo-7,8,9,10,11,12,13,14,17,18,19,19a,20,21,22,23-hexadecahydro-16H-pyrido[2′,1′:6,7][1]oxa[4,7,10,14]tetraazacycloheptadecino[17,16-c]quinoline-9-carboxamide]	6.26	199
CC(C)C[C@H]1C(=O)N2CCCC[C@@H]2C(=O)N[C@H](Cc2ccccc2)COc2cnc3c(F)cccc3c2C(=O)N[C@H](C(=O)NCCc2nc(C3CC3)no2)CC(=O)N1C [Example 501, (9S,13S,19aR,22R)-22-benzyl-N-(2-(3-cyclopropyl-1,2,4-oxadiazol-5-yl)ethyl)-3-fluoro-13-isobutyl-12-methyl-7,11,14,20-tetraoxo-7,8,9,10,11,12,13,14,17,18,19,19a,20,21,22,23-hexadecahydro-16H-pyrido[2′,11:6,7][1]oxa[4,7,10,14]tetraazacycloheptadecino[17,16-c]quinoline-9-carboxamide]	6.70	308
CC(C)C[C@H]1C(=O)N(C)C2(CC2)C(=O)N[C@H](Cc2ccccc2)COc2cnc3ccccc3c2C(=O)N[C@H](C(=O)NCCc2cccc(-c3ncccn3)c2)CC(=O)N1C [Example 502, (3′S,7′S,13′R)-13′-benzyl-7′-isobutyl-6′,9′-dimethyl-1′,5′,8′,11′-tetraoxo-N-(3-(pyrimidin-2-yl)phenethyl)-2′,3′,4′,5′,6′,7′,8′,9′,11′,12′,13′,14′-dodecahydro-1′H-spiro[cyclopropane-1,10′-[1]oxa[4,7,10,14]tetraazacycloheptadecino[17,16-c]quinoline]-3′-carboxamide]	6.12	295
COc1cccc(CCNC(=O)[C@@H]2CC(=O)N(C)[C@@H](CC(C)C)C(=O)N(C)C(C)(C)C(=O)N[C@H](Cc3ccccc3)COc3cnc4ccccc4c3C(=O)N2)c1 [Example 503, (3S,7S,13R)-13-benzyl-7-isobutyl-N-(3-methoxyphenethyl)-6,9,10,10-tetramethyl-1,5,8,11-tetraoxo-1,2,3,4,5,6,7,8,9,10,11,12,13,14-tetradecahydro-[1]oxa[4,7,10,14]tetraazacycloheptadecino[17,16-c]quinoline-3-carboxamide]	6.11	137
CC(C)C[C@H]1C(=O)N2CCCC[C@@H]2C(=O)N[C@H](Cc2ccccc2)COc2ccc3ncccc3c2C(=O)N[C@H](C(=O)NCCc2cc(C3CC3)on2)CC(=O)N1C [Example 504, (9S,13S,19aR,22R)-22-benzyl-N-(2-(5-cyclopropylisoxazol-3-yl)ethyl)-13-isobutyl-12-methyl-7,11,14,20-tetraoxo-7,8,9,10,11,12,13,14,17,18,19,19a,20,21,22,23-hexadecahydro-16H-pyrido[2′,1′:6,7][1]oxa[4,7,10,14]tetraazacycloheptadecino[16,17-f]quinoline-9-carboxamide]	6.83	298
CC(C)C[C@H]1C(=O)N2CCCC[C@@H]2C(=O)N[C@H](Cc2ccccc2)COc2ccc3ncccc3c2C(=O)N[C@H](C(=O)NCCc2nc(C3CC3)no2)CC(=O)N1C [Example 505, (9S,13S,19aR,22R)-22-benzyl-N-(2-(3-cyclopropyl-1,2,4-oxadiazol-5-yl)ethyl)-13-isobutyl-12-methyl-7,11,14,20-tetraoxo-7,8,9,10,11,12,13,14,17,18,19,19a,20,21,22,23-hexadecahydro-16H-pyrido[2′,1′:6,7][1]oxa[4,7,10,14]tetraazacycloheptadecino[16,17-f]quinoline-9-carboxamide]	6.64	330
CCN1C(=O)C[C@@H](C(=O)NCCc2cc(C)no2)NC(=O)c2c(cnc3ccccc23)OC[C@@H](Cc2ccccc2)NC(=O)[C@H]2CCCCN2C(=O)[C@@H]1CC(C)C [Example 506, (9S,13S,19aR,22R)-22-benzyl-12-ethyl-13-isobutyl-N-(2-(3-methylisoxazol-5-yl)ethyl)-7,11,14,20-tetraoxo-7,8,9,10,11,12,13,14,17,18,19,19a,20,21,22,23-hexadecahydro-16H-pyrido[2′,1′:6,7][1]oxa[4,7,10,14]tetraazacycloheptadecino[17,16-c]quinoline-9-carboxamide]	6.50	211
COc1cccc(CCNC(=O)[C@@H]2CC(=O)N(C)[C@@H](CC(C)C)C(=O)N(C)CC(=O)N[C@H](Cc3ccccc3)COc3ccc4ncc(F)cc4c3C(=O)N2)c1 [Example 507, (3S,7S,13R)-13-benzyl-20-fluoro-7-isobutyl-N-(3-methoxyphenethyl)-6,9-dimethyl-1,5,8,11-tetraoxo-1,2,3,4,5,6,7,8,9,10,11,12,13,14-tetradecahydro-[1]oxa[4,7,10,14]tetraazacycloheptadecino[16,17-f]quinoline-3-carboxamide]	6.33	337
Cc1cc(CCNC(=O)[C@@H]2CC(=O)N(C)[C@@H](CC(C)C)C(=O)N(C)[C@H](C3CC3)C(=O)N[C@H](Cc3ccccc3)COc3ccc4ccccc4c3C(=O)N2)on1 [Example 508, (3S,7S,10R,13R)-13-benzyl-10-cyclopropyl-7-isobutyl-6,9-dimethyl-N-(2-(3-methylisoxazol-5-yl)ethyl)-1,5,8,11-tetraoxo-1,2,3,4,5,6,7,8,9,10,11,12,13,14-tetradecahydronaphtho[1,2-p][1]oxa[4,7,10,14]tetraazacycloheptadecine-3-carboxamide]	6.42	378
COc1cccc(CCNC(=O)[C@@H]2CC(=O)N(C)[C@@H](CC(C)C)C(=O)N3CCN(c4ccccc4)C[C@@H]3C(=O)N[C@H](Cc3ccccc3)COc3cnc4ccccc4c3C(=O)N2)c1 [Example 509, (9S,13S,19aR,22R)-22-benzyl-13-isobutyl-N-(3-methoxyphenethyl)-12-methyl-7,11,14,20-tetraoxo-18-phenyl-7,8,9,10,11,12,13,14,17,18,19,19a,20,21,22,23-hexadecahydro-16H-pyrazino[2′,11:6,7][1]oxa[4,7,10,14]tetraazacycloheptadecino[17,16-c]quinoline-9-carboxamide]	7.12	327
Cc1cc(CCNC(=O)[C@@H]2CC(=O)N(C)[C@@H](CC(C)C)C(=O)N3CCN(c4ccccc4)C[C@@H]3C(=O)N[C@H](Cc3ccccc3)COc3cnc4ccccc4c3C(=O)N2)on1 [Example 510, (9S,13S,19aR,22R)-22-benzyl-13-isobutyl-12-methyl-N-(2-(3-methylisoxazol-5-yl)ethyl)-7,11,14,20-tetraoxo-18-phenyl-7,8,9,10,11,12,13,14,17,18,19,19a,20,21,22,23-hexadecahydro-16H-pyrazino[2′,11:6,7][1]oxa[4,7,10,14]tetraazacycloheptadecino[17,16-c]quinoline-9-carboxamide]	6.97	256

From patent US20240208992A1, “MACROCYCLES AS CFTR MODULATORS” (Idorsia Pharmaceuticals Ltd, priority 2021, published 2024)
